Results taken from the CheMixHub drug solubility set.

Assay: xn = mol fraction of the nth substance listed, in the solute-free solvent

CC(N)C(=O)O (stereo not drawn) + O + CCO
solubility (g/100 g solution)
Details	x2 = 0.1	x2 = 0.2	x2 = 0.3	x2 = 0.4	x2 = 0.5	x2 = 0.6	x2 = 0.7	x2 = 0.8	x2 = 0.9
283.15 K	0.0667	0.0909	0.102	0.126	0.31	0.534	1.1	1.98	4.36
293.15 K	0.0741	0.0951	0.11	0.185	0.389	0.66	1.35	2.59	5.5
303.15 K	0.0895	0.102	0.127	0.245	0.454	0.83	1.68	3.23	6.66
313.15 K	0.0998	0.114	0.136	0.268	0.573	1.05	2.12	3.96	7.99
323.15 K	0.104	0.124	0.196	0.347	0.688	1.37	2.62	4.97	9.53

Cl.N=C(N)N + CN1CCCC1=O + CCCO
solubility (g/100 g solution)
Details	278.15 K	283.15 K	288.15 K	293.15 K	298.15 K	303.15 K	308.15 K	313.15 K	318.15 K	323.15 K
x2 = 0.06317	8.4	9.4	10.7	11.5	12.7	13.3	15.1	16.1	17.7	18.6
x2 = 0.2064	15.9	17	17.8	19.2	20.1	21.4	22.1	23.2	24.7	25.3
x2 = 0.3774	28.5	29.2	30.4	31	32.1	32.6	33.7	34.4	35.4	35.9
x2 = 0.5858	37.2	37.8	39.1	40.2	41.4	42.1	43.4	44.3	46	47.3
x2 = 0.845	41.9	43.3	44.2	45.5	46.7	47.9	49.3	50.4	52.6	53.1

Nc1nccnc1Cl + CC(C)O + O
solubility (g/100 g solution)
Details	278.15 K	283.15 K	288.15 K	293.15 K	298.15 K	303.15 K	308.15 K	313.15 K	318.15 K	323.15 K
x2 = 0.03225	0.0425	0.0564	0.0738	0.092	0.112	0.133	0.154	0.178	0.201	0.227
x2 = 0.06974	0.0786	0.103	0.134	0.166	0.201	0.237	0.275	0.316	0.356	0.402
x2 = 0.1139	0.129	0.168	0.215	0.266	0.321	0.38	0.439	0.503	0.567	0.64
x2 = 0.1666	0.19	0.245	0.313	0.387	0.466	0.551	0.638	0.729	0.824	0.93
x2 = 0.2307	0.242	0.315	0.4	0.503	0.609	0.724	0.84	0.962	1.09	1.24
x2 = 0.3103	0.31	0.394	0.503	0.621	0.753	0.893	1.05	1.2	1.38	1.57
x2 = 0.4117	0.355	0.459	0.585	0.73	0.887	1.06	1.23	1.42	1.61	1.85
x2 = 0.5454	0.393	0.507	0.645	0.808	0.982	1.18	1.38	1.58	1.83	2.1
x2 = 0.7297	0.411	0.529	0.672	0.836	1.02	1.23	1.45	1.67	1.93	2.26

Nc1ccc(Oc2ccc(N)cc2)cc1 + CN(C)C=O + CCO
solubility (g/100 g solution)
Details	293.15 K	298.15 K	303.15 K	308.15 K	313.15 K	318.15 K	323.15 K	328.15 K	333.15 K
x2 = 0.06545	0.79	0.873	1.16	1.2	1.53	1.69	2.06	2.54	2.99
x2 = 0.1361	1.59	1.71	2.14	2.18	2.57	2.99	3.53	4.13	4.74
x2 = 0.2127	2.76	2.98	3.46	3.65	4.23	4.88	5.56	6.41	7.1
x2 = 0.2959	4.51	4.86	5.41	5.88	6.29	7.33	8.28	9.19	10.3
x2 = 0.3866	6.9	7.38	7.95	8.83	9.66	10.6	11.6	12.8	14.1
x2 = 0.486	9.91	10.6	11.3	12.2	13.3	14.3	15.5	16.9	18.1
x2 = 0.5952	13.6	14.3	15.1	16.1	17.2	18.5	19.6	21	22.4
x2 = 0.716	17.6	18.4	19.2	20.3	21.5	22.6	23.9	25.2	26.7
x2 = 0.8501	21.8	22.5	23.2	24	25.6	26.7	27.9	29.2	30.6

Cc1c(Br)cccc1C(=O)O + CN(C)C=O + CC#N
solubility (g/100 g solution)
Details	x2 = 0.106	x2 = 0.224	x2 = 0.355	x2 = 0.502	x2 = 0.668	x2 = 0.858
278.15 K	6.4	10.6	14.2	17.6	20.8	23.6
283.15 K	7.69	12.4	16.8	20.7	24.4	25.8
288.15 K	8.95	14.9	19.8	24.3	28.2	32
293.15 K	11	17.3	23	28	32.5	36.6
298.15 K	12.6	20.2	26.5	32.1	37.1	41.6
303.15 K	14.5	23.3	30.5	36.5	42.1	47.1
308.15 K	17.1	26.8	34.4	41.3	47.2	52.7
313.15 K	19.5	30.5	38.9	46.3	52.7	58.5
318.15 K	22.6	34.5	43.6	51.4	58.1	64.3
323.15 K	26	38.8	48.6	56.7	63.8	70.3
328.15 K	29.2	43.1	53.5	62	69.3	76

Nc1cccc(S(=O)(=O)c2cccc(N)c2)c1 + CN(C)C=O + O
solubility (g/100 g solution)
Details	283.15 K	288.15 K	293.15 K	298.15 K	303.15 K	308.15 K	313.15 K	318.15 K	323.15 K	328.15 K
x2 = 0.02666	0.202	0.267	0.355	0.463	0.615	0.787	1.01	1.26	1.53	1.97
x2 = 0.05806	0.784	1.03	1.32	1.65	2.08	2.63	3.23	3.98	4.79	5.92
x2 = 0.09556	2.09	2.63	3.21	3.95	4.75	5.77	6.85	8.08	9.45	11
x2 = 0.1412	4.93	5.86	6.87	8.09	9.39	10.8	12.4	14.1	15.9	17.7
x2 = 0.1978	7.85	9.25	10.8	12.5	14.2	16.2	18.4	20.5	22.9	25.4
x2 = 0.27	11.4	13	15	16.9	19.1	21.5	23.9	26.7	29.3	32.1
x2 = 0.3652	14.4	16.6	18.8	21.2	23.6	26.3	29.1	31.9	34.6	37.4
x2 = 0.4965	17.8	20.1	22.5	25.2	27.8	30.7	33.8	36.6	39.7	42.6
x2 = 0.6893	20.8	23.1	25.7	28.2	31.1	33.9	36.5	39.4	42.3	45.4

c1ccc2[nH]c(-c3cscn3)nc2c1 + CC#N + O
solubility (g/100 g solution)
Details	283.15 K	288.15 K	293.15 K	298.15 K	303.15 K	308.15 K	313.15 K	318.15 K	323.15 K
x2 = 0.04651	0.00121	0.00153	0.00195	0.00251	0.00312	0.00391	0.00486	0.00604	0.00759
x2 = 0.0989	0.00381	0.0048	0.0062	0.00795	0.00993	0.0122	0.0152	0.0184	0.0223
x2 = 0.1583	0.00804	0.0102	0.013	0.0163	0.0204	0.0251	0.0307	0.0373	0.0446
x2 = 0.2264	0.0137	0.0175	0.0219	0.027	0.0332	0.0403	0.0487	0.0587	0.0699
x2 = 0.3051	0.0203	0.0246	0.0311	0.0385	0.0467	0.0564	0.0675	0.0804	0.0944
x2 = 0.397	0.0272	0.0332	0.0403	0.049	0.0593	0.0713	0.0845	0.1	0.118
x2 = 0.506	0.0343	0.0409	0.0505	0.0604	0.0718	0.0849	0.1	0.121	0.141
x2 = 0.6372	0.0418	0.0499	0.0602	0.0732	0.0874	0.103	0.123	0.145	0.168
x2 = 0.798	0.0476	0.0573	0.0693	0.0823	0.0998	0.118	0.14	0.163	0.188
